From ChEMBL document CHEMBL1795220, “Antifungal quinazolinones from marine-derived Bacillus cereus and their preparation” (2011) come the findings set out here.

The structures appear in SMILES notation. In brackets after ≈: the same amount, converted by molar mass.

As a reminder, the MIC is the smallest concentration in the dilution series that meets the test's criterion for growth inhibition. Read a high MIC as a less susceptible organism.

The assay relates to Candida albicans. Put plainly: Antifungal activity against Candida albicans after 12 hrs by agar dilution method. The assay is classed as functional. (In agar dilution the substance is mixed into plates at graded concentrations.)
`Oc1nc(Cc2ccccc2)nc2ccccc12` gave an MIC of 10.6 µM (≈ 2.5 µg/mL).
As for `CCCC[C@@H](CC)c1nc2ccccc2c(=O)[nH]1`, the figure is 2.5 µM (≈ 0.611 µg/mL); as for `CCCC[C@H](CC)c1nc2ccccc2c(=O)[nH]1`, 1.3 µM (≈ 0.318 µg/mL); as for `Cc1nc2ccccc2c(=O)[nH]1`, 15.6 µM (≈ 2.5 µg/mL).
`CCCC[C@@H](CC)C1NC(=O)c2ccccc2N1` (mixture of isomers) came in with an MIC of 2.5 µM.
For `CCCC[C@H](CC)C1NC(=O)c2ccccc2N1` (mixture of isomers) the value was 5 µM; for `CCCCC(CC)c1nc2ccccc2c(=O)[nH]1` (racemic), 10.2 µM (≈ 2.49 µg/mL); for `CCCCC(CC)C1NC(=O)c2ccccc2N1` (racemic), 10.1 µM (≈ 2.49 µg/mL).
For `CC(=O)N1CCN(c2ccc(OCC3COC(Cn4ccnc4)(c4ccc(Cl)cc4Cl)O3)cc2)CC1` (centres undefined) [KETOCONAZOLE] the value was 0.2 µM (≈ 0.106 µg/mL).
